Experimental data reported in patent publication US11760773B2, “Small molecule drug conjugates of gemcitabine monophosphate” (MaveriX Oncology, Inc., priority 2018, dated 2023).

Columns and labels:
[1] = Int 1-4 and gemcitabine comparative PK in male cynomolgus monkey (study g); assay type: in vivo; details: plasma, male cynomolgus monkey; for AUC(0-inf): read-out: AUC0-inf; for MRT inf: read-out: MRT0-inf; for MRT last: read-out: MRT0-last; for Vd: read-out: Vdss
Procedure: Objectives: to compare the plasma pharmacokinetics and stability of Int 1-4 versus gemcitabine in plasma following single intravenous infusion administration of Int 1-4 at 5 mg/kg and 10 mg/kg with equimolar gemcitabine at 2.65 mg/kg and 5.29 mg/kg in male cynomolgous monkeys
PK measurements: compare PK parameters C0, CL, Vdss, Cmax, tmax, t1/2, AUC(0-t), AUC(0-inf), MRT(0-t), MRT(0-inf) for Int 1-4 with gemcitabine

[2] = Comparative plasma PK of Int 1-4 versus gemcitabine in mouse (study a); assay type: in vivo; details: plasma, CD-1 mice; for MRT inf: read-out: MRT0-inf; for MRT last: read-out: MRT0-last
[3] = Int 1-4 plasma PK in the male cynomolgus monkey (study f); assay type: in vivo; details: for C0: read-out: C0; for MRT inf: read-out: MRT0-inf; for MRT last: read-out: MRT0-last; for Vd: read-out: Vdss
Procedure: Objectives: to compare the plasma pharmacokinetics and stability of Int 1-4 in plasma following single intravenous infusion administration of Int 1-4 at 5 mg/kg and 10 mg/kg in the male cynomolgus monkey
PK measurements: compare PK parameters C0, CL, Vdss, Cmax, tmax, t, AUC(0-t), AUC(0-inf), MRT(0-t), MRT(0-inf) for Int 1-4

[4] = Comparative PK of Int 1-4 versus gemcitabine in rat plasma (study i); assay type: in vivo, Sprague-Dawley rats; details: for half-life: Sprague-Dawley, rat, iv; for MRT inf: read-out: MRT0-inf; for MRT last: read-out: MRT0-last
Description: PK measurements: compare PK parameters C0, CL, Vdss, Cmax, tmax, t1/2, AUC(0-t), AUC(0-inf), MRT(0-t), MRT(0-inf) for Int 1-4 and gemcitabine.

[5] = Comparative dog plasma PK of Int 1-4 versus gemcitabine (study k); assay type: in vivo; details: male beagle dog; for AUC(0-inf): read-out: AUC0-inf; for Cmax: read-out: Cmax; for MRT inf: read-out: MRT0-inf; for MRT last: read-out: MRT0-last
Procedure: Objectives: to compare the plasma pharmacokinetics and stability of Int-4 in plasma following single intravenous infusion administration of Int 1-4 at 5 mg/kg and 10 mg/kg versus gemcitabine at 5 mg/kg in the male Beagle dog

[6] = Int 1-4 dog plasma PK (study j); assay type: in vivo; details: male beagle dog; for AUC(0-inf): read-out: AUC0-inf; for MRT inf: read-out: MRT0-inf; for MRT last: read-out: MRT0-last
Procedure: Objectives: to compare the plasma pharmacokinetics and stability of Int 1-4 in plasma following single intravenous infusion administration of t 1-4 at 10 mg/kg and 20 mg/kg in the male Beagle dog.

[7] = after iv Int 1-4 5 mg/kg (study g)
[8] = after iv Int 1-4 10 mg/kg (study g)
[9] = after iv gemcitabine 2.65 mg/kg
[10] = mouse, after iv Int 1-4 9.4 mg/kg
[11] = mouse, after iv gemcitabine 5.29 mg/kg
[12] = after iv gemcitabine 5.29 mg/kg
[13] = after iv Int 1-4 5 mg/kg (study f)
[14] = after iv Int 1-4 10 mg/kg (study f)
[15] = plasma, Sprague-Dawley rat, after iv Int 1-4 10.0 mg/kg
[16] = plasma, Sprague-Dawley rat, after iv gemcitabine 4.47 mg/kg
[17] = after iv Int 1-4 5 mg/kg (study k)
[18] = after iv Int 1-4 10 mg/kg (study k)
[19] = after iv Int 1-4 10 mg/kg (study j)
[20] = after iv Int 1-4 20 mg/kg (study j)

With `Nc1ccn([C@@H]2O[C@H](CO)[C@@H](O)C2(F)F)c(=O)n1` [Gemcitabine, gemcitabine] the AUC(0-t) [1, 7] was 5.37 ng·h/mL, the half-life [1, 7] was 0.15 h and the AUC(0-inf) [1, 7] was 8.13 ng·h/mL. The MRT inf [1, 7] was 0.24 h, the MRT last [1, 7] was 0.15 h and the Vd [1, 7] was 0.349 L/kg. It also gave an AUC(0-t) [1, 8] of 16.2 ng·h/mL, a half-life [1, 8] of 0.18 h and an AUC(0-inf) [1, 8] of 17.5 ng·h/mL. It also gave an MRT inf [1, 8] of 0.26 h, an MRT last [1, 8] of 0.21 h and an AUC(0-t) [1, 9] of 154 ng·h/mL. It also gave a C0 [1, 9] of 17000 ng/mL, a clearance [1, 9] of 323 mL/min/kg and a half-life [1, 9] of 0.02 h. It also gave an AUC(0-inf) [1, 9] of 154 ng·h/mL, an MRT inf [1, 9] of 0.01 h and an MRT last [1, 9] of 0.01 h. The Vd [1, 9] was 0.221 L/kg, the AUC(0-t) [2, 10] was 64.9 ng·h/mL and the half-life [2, 10] was 0.968 h. The AUC(0-inf) ([2]; mouse, after iv Int 1-4 9.4 mg/kg, read-out: AUC0-inf) was 74.1 ng·h/mL, the Cmax ([2]; mouse, after iv Int 1-4 9.4 mg/kg, read-out: Cmax) was 81.9 ng/mL and the MRT inf [2, 10] was 1.27 h. For the same compound, the MRT last [2, 10] was 0.875 h, the Tmax ([2]; mouse, after iv Int 1-4 9.4 mg/kg, read-out: Tmax) was 8.34 min and the C0 [2, 11] was 6430 ng/mL. It also gave a clearance [2, 11] of 59 mL/min/kg, a half-life [2, 11] of roughly 0.9 h and an MRT inf [2, 11] of 0.541 h. For the same compound, the MRT last [2, 11] was 0.503 h, the Vd ([2]; mouse, after iv gemcitabine 5.29 mg/kg, read-out: Vdss) was 1.84 L/kg and the AUC0-inf/AUC0-last ([2]; after iv Int 1-4 9.4 mg/kg) was 116%. For the same compound, the AUC0-inf/AUC0-last [2, 12] was 101%, the AUC0-last [2, 12] was 1383 ng·h/mL and the AUC(0-inf) [2, 12] was 1393 ng·h/mL. The T1/2 [2, 12] was 0.868 h, the clearance [3, 13] was 3.71 mL/min/kg and the half-life [3, 13] was 2.82 min. It also gave a C0 [3, 13] of 20.5 ng/mL, an MRT inf [3, 13] of 20.5 h and an MRT last [3, 13] of 0.19 h. The Vd [3, 13] was 0.11 L/kg, the clearance [3, 14] was 15.5 mL/min/kg and the half-life [3, 14] was 4.8 min. For the same compound, the C0 [3, 14] was 53.4 ng/mL, the MRT inf [3, 14] was 53.4 h and the MRT last [3, 14] was 0.3 h. The Vd [3, 14] was 0.19 L/kg, the half-life ([4]; plasma, 4.47 mg/kg, plasma, Sprague-Dawley rat, after iv gemcitabine 4.47 mg/kg) was roughly 3.3 h and the half-life ([4]; plasma, 10 mg/kg, plasma, Sprague-Dawley rat, after iv Int 1-4 10.0 mg/kg) was roughly 9.43 h. It also gave an AUC0-inf/AUC0-last [4, 15] of 235%, an AUC(0-inf) [4, 15] of 6000 ng·h/mL and an AUC(0-t) [4, 15] of 2760 ng·h/mL. It also gave a T1/2 [4, 15] of 9.43 h, an MRT inf [4, 15] of 13.8 h and an MRT last [4, 15] of 3.38 h. It also gave a clearance ([4]; plasma, Sprague-Dawley rat, after iv gemcitabine) of 4.36 mL/min/kg, an AUC0-inf/AUC0-last [4, 16] of 122% and an AUC(0-inf) [4, 16] of 18000 ng·h/mL. It also gave an AUC(0-t) [4, 16] of 14700 ng·h/mL, a C0 [4, 16] of 8410 ng/mL and a T1/2 [4, 16] of 3.26 h. It also gave an MRT inf [4, 16] of 4.63 h, an MRT last [4, 16] of 2.82 h and a Vd ([4]; plasma, Sprague-Dawley rat, after iv gemcitabine 4.47 mg/kg, read-out: Vdss) of 1.21 L/kg. The “plasma half-life in rats relative to mice” value ([4]; rat versus mouse plasma, iv gemcitabine) was 3 ×, the AUC(0-t) [5, 17] was 2330 ng·h/mL and the half-life [5, 17] was 2.01 h. It also gave an AUC(0-inf) [5, 17] of 2390 ng·h/mL, a Cmax [5, 17] of 872 ng/mL and an MRT inf [5, 17] of 2.7 h. The MRT last [5, 17] was 2.48 h, the AUC(0-t) [5, 18] was 4140 ng·h/mL and the half-life [5, 18] was 1.6 h. For the same compound, the AUC(0-inf) [5, 18] was 4290 ng·h/mL, the MRT inf [5, 18] was 2.45 h and the MRT last [5, 18] was 2.16 h. It also gave an AUC(0-t) [5, 12] of 8230 ng·h/mL, a C0 [5, 12] of 11500 ng/mL and a clearance [5, 12] of 11 mL/min/kg. For the same compound, the half-life [5, 12] was 2.04 h, the AUC(0-inf) [5, 12] was 8600 ng·h/mL and the Cmax [5, 12] was 8620 ng/mL. It also gave an MRT last [5, 12] of 2.19 h, a Vd ([5]; after iv gemcitabine 5.29 mg/kg, read-out: Vdss) of 1.61 L/kg and an AUC(0-t) [6, 19] of 6160 ng·h/mL. For the same compound, the half-life [6, 19] was 3.1 h, the AUC(0-inf) [6, 19] was 6180 ng·h/mL and the MRT inf [6, 19] was 3.56 h. It also gave an MRT last [6, 19] of 3.47 h, an AUC(0-t) [6, 20] of 7690 ng·h/mL and a half-life [6, 20] of 3.55 h. It also gave an AUC(0-inf) [6, 20] of 7880 ng·h/mL, an MRT inf [6, 20] of 3.28 h and an MRT last [6, 20] of 2.69 h.
